A short description of series [1]: In vitro cytotoxicity, fluorescent Resazurin assay, HL60. The settings on record: human, HL60 (HL-60) promyelocytic leukemia cells, In vitro cytotoxicity [IC50, μM] HL60, HL60 cells, 72 h incubation, 1–30 μM, mean ± standard deviation. (In general: Alamar Blue is a resazurin reagent that responds to reducing activity.)
Text: (§1) The in vitro cytotoxicity of the several synthesized compounds was also investigated. […] During the measurements, the fluorescent Resazurin assay as described previously was applied.[19]
(§2) Cells were purchased from the American Type Culture Collection (ATCC, Manassas, Virginia, USA). Human lung adenocarcinoma A549 cells were maintained in Dulbecco’s modified Eagle’s medium (DMEM), while mouse fibroblast NIH/3T3 and human promyelocytic leukemia HL-60 cells were maintained in Roswell Park Memorial Institute 1640 medium (RPMI-1640) containing 10% FCS. Media were supplemented with 2 mM GlutaMAX, 100 U/mL penicillin, and 100 μg/mL streptomycin (Life Technologies, Carlsbad, California, USA). Cell cultures were maintained at 37 °C in a humidified incubator in an atmosphere of 5% CO2 (Sanyo, Japan).
(§3) Cytotoxicity of the synthesized molecules was determined on A549, NIH/3T3, and HL-60 cells using the fluorescent Resazurin assay as described previously.[19]
(§4) Briefly, cells (A549 and NIH/3T3: 6000, HL-60: 120.000 cells/well) were seeded into 96-well plates (Corning Life Sciences) in media and incubated overnight. Test compounds were dissolved in 3-fold amounts of dimethyl sulfoxide (DMSO). Cells were treated with an increasing concentration of test compounds (1–30 μM). […] Cell viability was determined after 72 h incubation. Resazurin reagent (Sigma-Aldrich) was added at a final concentration of 25 μg/mL. After a 2 h incubation for at 37 °C, 5% CO2, fluorescence (530 nm excitation/580 nm emission) was recorded on a multimode microplate reader (Cytofluor4000, PerSeptive Biosytems). Viability was calculated with relation to untreated control cells and blank wells containing media without cells.
A short description of series [2]: In vitro cytotoxicity, fluorescent Resazurin assay, NIH/3T3. To be noted: mouse, NIH/3T3 fibroblast cells.
Text: as §1, §2, §3, §4
A short description of series [3]: In vitro cytotoxicity, fluorescent Resazurin assay, A549. The settings on record: human, A549 lung adenocarcinoma cells, 72 h incubation, 1–30 μM, mean ± standard deviation. The format is cell-based.
In series [4] the test system is human promyelocytic leukemia (HL60) cell line. The series can be described thus: In vitro cytotoxicity, fluorescent Resazurin assay, HL60. To be noted: read-out: In vitro cytotoxicity [IC50, μM] HL60, HL60 cells, 72 h incubation, 1–30 μM, mean ± standard deviation.
Text: as §1, §2, §3, §4

Molecules are shown by their SMILES.

The values that follow come from paper PMC9850473, “Three-Component Reaction of 3-Formyl-6-Methylchromone, Primary Amines, and Secondary Phosphine Oxides: A Synthetic and Mechanistic Study” (ACS Omega, 2022).

As a reminder, the melting point is the temperature of the solid-liquid transition. In general, IC50 refers to the concentration that gives 50% inhibition.

In the case of `CCCCNC(c1coc2ccc(C)cc2c1=O)P(=O)(c1ccccc1)c1ccccc1` (stereo not shown) [1a, 3-[(Butylamino)(diphenylphosphoryl)methyl]-6-methyl-4H-chromen-4-one], the melting point fell in the range of 187 to 188 °C.

`Cc1ccc2occ(C(Nc3ccccc3)P(=O)(c3ccccc3)c3ccccc3)c(=O)c2c1` (stereo not shown) [1b, 3-[(Phenylamino)(diphenylphosphoryl)methyl]-6-methyl-4H-chromen-4-one] displayed a melting point of 239 to 240 °C.

The compound `COc1ccc(NC(c2coc3ccc(C)cc3c2=O)P(=O)(c2ccccc2)c2ccccc2)cc1` (stereo not shown) [1c, 3-[(4-Methoxyphenylamino)(diphenylphosphoryl)methyl]-6-methyl-4H-chromen-4-one] came in with a melting point of 224 to 225 °C.

With `Cc1ccc2occ(C(Nc3ccc(Cl)cc3)P(=O)(c3ccccc3)c3ccccc3)c(=O)c2c1` (stereo not shown) [1d, 3-[(4-Chlorophenylamino)(diphenylphosphoryl)methyl]-6-methyl-4H-chromen-4-one], the melting point fell in the range of 235 to 236 °C.

On to `CCCCN/C=C1/C(=O)c2cc(C)ccc2OC1P(=O)(c1ccccc1)c1ccccc1` (stereo not shown) [2a, (Z)-3-[(Butylamino)methylene]-2-(diphenylphosphoryl)-6-methylchroman-4-one], for which the melting point was in the range of 192 to 193 °C.

`Cc1ccc2c(c1)C(=O)/C(=C/Nc1ccccc1)C(P(=O)(c1ccccc1)c1ccccc1)O2` (stereo not shown) [2b, (Z)-3-[(Phenylamino)methylene]-2-(diphenylphosphoryl)-6-methylchroman-4-one] yielded a melting point of 243 to 244 °C.

In turn, `Cc1ccc2c(c1)C(=O)/C(=C/NC1CCCCC1)C(P(=O)(c1ccccc1)c1ccccc1)O2` (stereo not shown) [2c, (Z)-3-[(Cyclohexylamino)methylene]-2-(diphenylphosphoryl)-6-methylchroman-4-one] showed a melting point of 198 to 199 °C.

In turn, `Cc1ccc2c(c1)C(=O)/C(=C/NCc1ccccc1)C(P(=O)(c1ccccc1)c1ccccc1)O2` (stereo not shown) [2d, (Z)-3-[(Benzylamino)methylene]-2-(diphenylphosphoryl)-6-methylchroman-4-one] returned a melting point of 196 to 197 °C.

`Cc1ccc2c(c1)C(=O)/C(=C/NC(c1ccccc1)c1ccccc1)C(P(=O)(c1ccccc1)c1ccccc1)O2` (stereo not shown) [2e, (Z)-3-[(Benzhydrylamino)methylene]-2-(diphenylphosphoryl)-6-methylchroman-4-one] came in with a melting point of 182 to 183 °C. Also, inhibition in series [1] was half-maximal at 9.91 ± 1.28 µM (IC50 at 72 h). For the same compound, the IC50 at 72 h in series [2] is greater than 30 µM. Besides, in series [3], the IC50 at 72 h was greater than 30 µM.

In the case of `Cc1ccc2c(c1)C(=O)/C(=C/NCCCO)C(P(=O)(c1ccccc1)c1ccccc1)O2` (stereo not shown) [2f, (Z)-3-[(Propanolamino)methylene]-2-(diphenylphosphoryl)-6-methylchroman-4-one], the melting point was in the range of 176 to 177 °C. This compound also registered an IC50 at 72 h in series [1] of 27.4 ± 1.13 µM. The compound further displayed an IC50 at 72 h in series [2] greater than 30 µM. In addition, the IC50 at 72 h in series [3] was greater than 30 µM.

Consider `Cc1ccc2c(c1)C(=O)/C(=C/NCCO)C(P(=O)(c1ccccc1)c1ccccc1)O2` (stereo not shown) [2g, (Z)-3-[(Ethanolamino)methylene]-2-(diphenylphosphoryl)-6-methylchroman-4-one], for which the melting point was 181 to 182 °C. The compound further registered an IC50 at 72 h in series [1] greater than 30 µM. In addition, 20.7 ± 1.02 µM corresponded to half-maximal inhibition in series [2] (IC50 at 72 h). In addition, in series [3], the IC50 at 72 h was greater than 30 µM.

`CCCCN/C=C1/C(=O)c2cc(C)ccc2OC1P(=O)(c1ccc(C)cc1)c1ccc(C)cc1` (stereo not shown) [7a, (Z)-3-[(Butylamino)methylene]-2-(di-p-tolylphosphoryl)-6-methylchroman-4-one] showed a melting point of 186 to 187 °C.

In turn, `Cc1ccc(P(=O)(c2ccc(C)cc2)C2Oc3ccc(C)cc3C(=O)/C2=C/NC2CCCCC2)cc1` (stereo not shown) [7b, (Z)-3-[(Cyclohexylamino)methylene]-2-(di-p-tolylphosphoryl)-6-methylchroman-4-one] registered a melting point of 205 to 206 °C.

Compound `Cc1ccc(P(=O)(c2ccc(C)cc2)C2Oc3ccc(C)cc3C(=O)/C2=C/NCc2ccccc2)cc1` (stereo not shown) [7c, (Z)-3-[(Benzylamino)methylene]-2-(di-p-tolylphosphoryl)-6-methylchroman-4-one] yielded a melting point of 198 to 199 °C.

For the compound `CCCCN/C=C1/C(=O)c2cc(C)ccc2OC1P(=O)(c1cc(C)cc(C)c1)c1cc(C)cc(C)c1` (stereo not shown) [8a, (Z)-2-[Bis(3,5-dimethylphenyl)phosphoryl]-3-[(butylamino)methylene]-6-methyl-chroman-4-one], the melting point was 145 to 146 °C. The same compound returned an IC50 at 72 h in series [1] of roughly 15 µM. For the same compound, in series [4], the IC50 amounted to 14.8 ± 1.13 µM. Also, in series [2], the IC50 at 72 h was greater than 30 µM. Also, the half-maximal inhibitory concentration (IC50) at 72 h in series [3] was greater than 30 µM.

As for `Cc1cc(C)cc(P(=O)(c2cc(C)cc(C)c2)C2Oc3ccc(C)cc3C(=O)/C2=C/NC2CCCCC2)c1` (stereo not shown) [8c, (Z)-2-[Bis(3,5-dimethylphenyl)phosphoryl]-3-[(cyclohexylamino)methylene]-6-methylchroman-4-one], the melting point was 155 to 156 °C. Also, the IC50 at 72 h in series [1] was roughly 15 µM. In series [2], this compound came in with an IC50 at 72 h greater than 30 µM. Moreover, the IC50 at 72 h in series [3] was greater than 30 µM.

On to `Cc1cc(C)cc(P(=O)(c2cc(C)cc(C)c2)C2Oc3ccc(C)cc3C(=O)/C2=C/NCc2ccccc2)c1` (stereo not shown) [8d, (Z)-3-[(benzylamino)methylene]-2-[bis(3,5-dimethylphenyl)phosphoryl]-6-methylchroman-4-one], for which the IC50 at 72 h in series [1] is roughly 15 µM; in series [2], 14.2 ± 1.12 µM; in series [3] it was 18.5 ± 1.08 µM. Besides, the IC50 in series [4] stood at 13.2 ± 1.32 µM.

With `CCCCN/C=C1/C(=O)c2cc(C)ccc2OC1P(=O)(c1ccc2ccccc2c1)c1ccc2ccccc2c1` (stereo not shown) [9a, (Z)-3-[(Butylamino)methylene]-2-[di(naphthalen-2-yl)phosphoryl]-6-methylchroman-4-one], the melting point lay in the range of 192 to 193 °C.

`Cc1ccc2c(c1)C(=O)/C(=C/NC1CCCCC1)C(P(=O)(c1ccc3ccccc3c1)c1ccc3ccccc3c1)O2` (stereo not shown) [9b, (Z)-3-[(Cyclohexylamino)methylene]-2-[di(naphthalen-2-yl)phosphoryl]-6-methylchroman-4-one]: the melting point is 171 to 172 °C.

`CC(C)C[C@H](NC(=O)[C@H](Cc1ccccc1)NC(=O)c1cnccn1)B(O)O` [bortezomib, reference compound] gave an IC50 at 72 h in series [1] of 0.00742 µM.

As to `Cc1ccc2occ(C(O)P(=O)(c3ccccc3)c3ccccc3)c(=O)c2c1` (stereo not shown) [compound 3, 3-[(Diphenylphosphoryl)(hydroxy)methyl]-6-methyl-4H-chromen-4-one], the melting point fell in the range of 190 to 192 °C.

For `Cc1ccc(P(=O)(c2ccc(C)cc2)C(Nc2ccccc2)c2coc3ccc(C)cc3c2=O)cc1` (stereo not shown) [compound 4, 3-[(Phenylamino)(di-p-tolylphosphoryl)methyl]-6-methyl-4H-chromen-4-one], the melting point is 245 to 246 °C.

Compound `Cc1cc(C)cc(P(=O)(c2cc(C)cc(C)c2)C(Nc2ccccc2)c2coc3ccc(C)cc3c2=O)c1` (stereo not shown) [compound 5, 3-{(Phenylamino)[bis(3,5-dimethylphenyl)phosphoryl]methyl}-6-methyl-4H-chromen-4-one] had a melting point of 229 to 230 °C.

Compound `Cc1ccc2occ(C(Nc3ccccc3)P(=O)(c3ccc4ccccc4c3)c3ccc4ccccc4c3)c(=O)c2c1` (stereo not shown) [compound 6, 3-{(Phenylamino)[di(naphthalen-2-yl)phosphoryl]methyl}-6-methyl-4H-chromen-4-one] gave a melting point of 223 to 224 °C.
